Source: patent US12702686B2, “Antimicrobial therapy” (priority 2021, dated 2026)
Where no end group is shown, it is not given here.

Columns and labels:
S. pseudintermedius ST71 = assay: Minimum inhibitory concentration, broth micro dilution; assay type: cell-based, Staphylococcus pseudintermedius; details: synthetic peptides, 18 h incubation
Description: MIC values were determined using a broth micro dilution method. Bacterial cells were grown to mid-late log phase, to an OD600 nm value of roughly 1.0 for each bacterial strain and then normalized to 1×10^7 CFU/mL. The PSMβ peptides or butanol extracts were dissolved in DMSO to a stock concentration of 10 mg/ml. The stock concentrations of antibiotics that were water-soluble were prepared with H2O or 100% ethanol if water-insoluble. The 1×10^7 CFU/ml bacterial cultures (10 μl) were aliquoted into 96-well microtiter plates and mixed with 95 μL of media with or without 2-fold dilutions of the conditioned supernatant, PSMβ peptides, butanol extracts or antibiotics and incubated for 16-18 h at 30° C. with shaking at 250 rpm. Growth inhibition was determined by measuring the OD600 nm readings of each well using a microplate reader (SpectraMax iD3, Molecular Devices). The MIC of each bacterial strain was determined by the lowest peptide concentration that inhibited more than 80% bacterial growth.

[1] = tested on: Primary normal human keratinocytes (NHEK); assay: LDH release cytotoxicity in keratinocytes; assay type: cell-based; details: 24 h, increasing concentrations
Description: NHEKs (ThermoFisher) were cultured in EpiLife medium containing 60 μM CaCl2) (ThermoFisher) supplemented with 1× human keratinocyte growth supplement (ThermoFisher) and 1× Antibiotic Antimycotic (Millipore Sigma) at 37° C., 5% CO 2. All experiments performed on NHEKs were between passages 3 and 5 with cells at 70-80% confluency.

| Compound | concentration at which S. pseudintermedius growth was inhibited (S. pseudintermedius ST71) | cytotoxicity by LDH release [1] |
| --- | --- | --- |
| Non-Formyl-MSKLTRVIVTSIMTVGFLTATLGLTAGNADAKLEGNGTLSQKQYQRLASQQF (H-MSKLTRVIVTSIMTVGFLTATLGLTAGNADAKLEGNGTLSQKQYQRLASQQF; listed as Staphylococcus felis) [EF-hand domain-containing peptide] | > 200 µg/mL | – |
| CC[C@H](C)[C@H](NC(=O)[C@H](Cc1c[nH]c2ccccc12)NC(=O)[C@H](CCCCN)NC(=O)[C@@H](NC(=O)[C@H](CC(C)C)NC(=O)[C@H](CC(=O)O)NC(=O)CNC(=O)[C@@H](NC(=O)[C@@H](NC(=O)[C@H](CO)NC(=O)[C@@H](NC(=O)[C@@H](NC(=O)[C@H](CC(=O)O)NC(=O)[C@H](C)NC(=O)[C@H](C)NC(=O)[C@H](CCSC)NC=O)[C@@H](C)CC)[C@@H](C)CC)[C@@H](C)O)[C@@H](C)CC)C(C)C)C(=O)N[C@H](C(=O)N[C@@H](CC(=O)O)C(=O)N[C@H](C(=O)N[C@H](C(=O)N[C@@H](CC(N)=O)C(=O)N[C@@H](CCCCN)C(=O)N[C@@H](Cc1ccccc1)C(=O)N[C@@H](CCCCN)C(=O)N[C@@H](CCCCN)C(=O)O)C(C)C)[C@@H](C)O)[C@@H](C)CC [PSMγ] | – | highly cytotoxic |
